Usually pEC50 stands for the EC50 on a negative log10 scale, so that one unit is a factor of ten.

pEC50: −log10 of the molar value.

Data on 28 compounds can be found in patent US8765730B2 (Hoffmann-La Roche Inc, priority 2010, dated 2014).

The target of the test is T1, human GPBAR1 receptor (Homo sapiens, UniProt Q8TDU6).
T1 construct: expressed in transfected cells
T1 sequence (Q8TDU6 1-330): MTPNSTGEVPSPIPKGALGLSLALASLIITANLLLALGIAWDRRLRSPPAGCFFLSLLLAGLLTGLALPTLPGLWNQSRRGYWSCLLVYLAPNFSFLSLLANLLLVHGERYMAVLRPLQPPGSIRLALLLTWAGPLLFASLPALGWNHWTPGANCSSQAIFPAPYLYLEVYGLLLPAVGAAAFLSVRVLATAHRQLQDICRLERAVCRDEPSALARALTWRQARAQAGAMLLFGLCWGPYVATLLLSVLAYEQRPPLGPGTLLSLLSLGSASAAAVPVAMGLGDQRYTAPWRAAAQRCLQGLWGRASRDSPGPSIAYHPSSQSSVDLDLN
Description: functional cAMP assay in CHO-dhfr(minus) cells expressing human GPBAR1 receptors. Particulars: human EC50, functional cAMP assay, 30 min at 30° C. It counts as cell-based. How it is done: The final clone was verified by DNA sequence analysis. The plasmid was transfected into CHO cells deficient in dihydrofolate reductase activity (CHO-dhfr−) using Lipofectamine plus (Invitrogen). Clones were isolated in limited dilution conditions and identified by activities in the cAMP assay using lithocholic acid as agonist.
The growth medium was exchanged with Krebs Ringer Bicarbonate buffer with 1 mM IBMX and incubated at 30° C. for 30 min. Compounds were added to a final assay volume of 100 μl and incubated for 30 min at 30° C. […] The time-resolved energy transfer is measured by a TRF reader (Evotec Technologies GmbH, Hamburg Germany), equipped with a ND:YAG laser as excitation source.
EC50 values were determined using Activity Base analysis (ID Business Solution, Limited). […] Specificity for GPBAR1 was tested in non-transfected CHO cells in the same assay as above.
For orientation: Cyclic AMP is a second messenger, typically raised through Gs and lowered through Gi signalling.
On to `Cc1ccccc1C(Cc1ccc(Br)cc1)/C(=N/O)c1ccncc1` (stereo not shown) [Example 43, (Z)-3-(4-Bromo-phenyl)-1-pyridin-4-yl-2-o-tolyl-propan-1-one oxime], for which the pEC50 was 6.07.

As for `Cn1cc(/C(CC(c2ccc(C(=O)NC3COC3)c(F)c2)c2ccccc2Cl)=N/O)ccc1=O` (stereo not shown) [Example 220, (E)-4-(1-(2-Chlorophenyl)-3-(hydroxyimino)-3-(1-methyl-6-oxo-1,6-dihydropyridin-3-yl)propyl)-2-fluoro-N-(oxetan-3-yl)benzamide], the pEC50 is 6.17.

For the compound `Cc1cc(Cl)ccc1C(C/C(=N\O)c1ccc(=O)n(C)c1)c1ccc(OCCCC(=O)O)c(F)c1` (stereo not shown) [Example 327, 4-{4-[1-(4-Chloro-2-methyl-phenyl)-3-[(E)-hydroxyimino]-3-(1-methyl-6-oxo-1,6-dihydro-pyridin-3-yl)-propyl]-2-fluoro-phenoxy}-butyric acid], the negative logarithm of the EC50 (pEC50) was 6.71.

As to `Cc1cc(C(CC(c2cccc(-c3cccc(C(=O)O)c3)c2)c2ccccc2C)=NO)ccn1` (racemic) [Example 102, 3′-[3-[Hydroxyimino]-3-(2-methyl-pyridin-4-yl)-1-o-tolyl-propyl]-biphenyl-3-carboxylic acid], the pEC50 was 6.49. Compared with the last compound, the pEC50 is 0.22 log units lower.

For `Cc1cc(Cl)ccc1C(C/C(=N\O)c1ccc(=O)n(C)c1)c1ccc(S(C)(=O)=O)cc1` (single isomer, unassigned; (+)) [Example 334, (+)-(E)-5-(3-(4-chloro-2-methylphenyl)-1-(hydroxyimino)-3-(4-(methylsulfonyl)phenyl)-propyl)-1-methylpyridin-2(1H)-one], the pEC50 is 7.17.

Take `Cc1cc(Cl)ccc1C(C/C(=N\O)c1ccc(=O)n(C)c1)c1ccc(Oc2cccc(C(=O)O)c2)c(F)c1` (stereo not shown) [Example 325, 3-{4-[1-(4-Chloro-2-methyl-phenyl)-3-[(E)-hydroxyimino]-3-(1-methyl-6-oxo-1,6-dihydro-pyridin-3-yl)-propyl]-2-fluoro-phenoxy}-benzoic acid]: the pEC50 is 6.98.

`Cc1ccccc1C(CC(=NO)c1ccncc1)c1cccc(Br)c1` (racemic) [Example 11, 3-(3-Bromo-phenyl)-1-pyridin-4-yl-3-o-tolyl-propan-1-one oxime] had a pEC50 of 7.40.

For the compound `Cc1cc(/C(C[C@H](c2ccc(C(=O)N(C)C)cc2)c2ccccc2C)=N/O)ccn1` [Example 277, 4-[(R)-3-[(E)-Hydroxyimino]-3-(2-methyl-pyridin-4-yl)-1-o-tolyl-propyl]-N,N-dimethyl-benzamide], the pEC50 was 7.68.

`Cc1cc(/C(C[C@H](c2ccccc2)c2ccccc2C)=N/O)ccn1` [Example 368, (R,E)-1-(2-Methylpyridin-4-yl)-3-phenyl-3-o-tolylpropan-1-one oxime] had a pEC50 of 7.74.

Compound `Cc1cc(Cl)ccc1C(C/C(=N\O)c1ccc(=O)n(C)c1)c1ccc(-c2ccc(C(=O)NCC(=O)O)cc2)cc1` (single isomer, unassigned; (+)) [Example 256, (+)-({4′-[1-(4-Chloro-2-methyl-phenyl)-3-[(E)-hydroxyimino]-3-(1-methyl-6-oxo-1,6-dihydro-pyridin-3-yl)-propyl]-biphenyl-4-carbonyl}-amino)-acetic acid] gave a pEC50 of 8.00.

On to `Cc1cc(/C(C[C@H](c2ccc(N3CCC(C(=O)NCC(=O)O)CC3)cc2)c2ccccc2C)=N/O)ccn1` [Example 369, (R,E)-2-(1-(4-(3-(Hydroxyimino)-3-(2-methylpyridin-4-yl)-1-o-tolylpropyl)phenyl)-piperidine-4-carboxamido)acetic acid], for which the pEC50 is 8.70.

For `Cc1cc(Cl)ccc1C(C/C(=N\O)c1ccc(=O)n(C)c1)c1ccc(OC(C)C)c(F)c1` (stereo not shown) [Example 323, 5-{3-(4-Chloro-2-methyl-phenyl)-3-(3-fluoro-4-isopropoxy-phenyl)-1-[(E)-hydroxyimino]-propyl}-1-methyl-1H-pyridin-2-one], the pEC50 is 6.75.

In turn, `Cn1cc(/C(CC(c2ccc(C(=O)NCCO)cc2)c2ccc(Cl)cc2F)=N/O)ccc1=O` (stereo not shown) [Example 311, 4-[1-(4-Chloro-2-fluoro-phenyl)-3-[(E)-hydroxyimino]-3-(1-methyl-6-oxo-1,6-dihydro-pyridin-3-yl)-propyl]-N-(2-hydroxy-ethyl)-benzamide] gave a pEC50 of 6.60.

Consider `Cn1cc(/C(CC(c2ccc(Br)cc2)c2ccc(Cl)cc2F)=N/O)ccc1=O` (single isomer, unassigned; (-)) [Example 240, (−)-5-{3-(4-Bromo-phenyl)-3-(4-chloro-2-fluoro-phenyl)-1-[(E)-hydroxyimino]-propyl}-1-methyl-1H-pyridin-2-one], for which the pEC50 is 7.51.

Consider `Cc1cc(/C(C[C@H](c2ccc(C3CCN(C(=O)OC(C)(C)C)CC3)cc2)c2ccc(Cl)cc2C)=N/O)ccn1` [Example 387, (R,E)-tert-Butyl 4-(4-(1-(4-chloro-2-methylphenyl)-3-(hydroxyimino)-3-(2-methylpyridin-4-yl)propyl)phenyl)piperidine-1-carboxylate], for which the pEC50 was 6.43. This pEC50 lies 1.08 log units lower than the previous one.

Turning to `Cc1cc(/C(CC(c2ccc(Br)cc2)c2cc(F)cc(F)c2)=N/O)ccn1` (stereo not shown) [Example 445, 3-(4-Bromo-phenyl)-3-(3,5-difluoro-phenyl)-1-(2-methyl-pyridin-4-yl)-propan-1-one oxime], the pEC50 is 7.57.

Compound `Cc1cc(/C(CC(c2cccc(Br)c2)c2ccccc2C)=N/O)cc(F)n1` (stereo not shown) [Example 122, (E)-3-(3-Bromo-phenyl)-1-(2-fluoro-6-methyl-pyridin-4-yl)-3-o-tolyl-propan-1-one oxime] showed a negative-log EC50 (pEC50) of 6.70.

`Cc1cc(C(C[C@@H](c2ccc(-c3ccc(C(=O)N[C@@H](C)C(=O)O)cc3)cc2)c2ccccc2C)=NO)ccn1` (racemic) [Example 95, (S)-2-({4′-[(S)-3-[Hydroxyimino]-3-(2-methyl-pyridin-4-yl)-1-o-tolyl-propyl]-biphenyl-4-carbonyl}-amino)-propionic acid] had a pEC50 of 7.41.

Take `Cc1ccccc1C(C/C(=N\O)c1cnccn1)c1ccc(Br)cc1` (stereo not shown) [Example 156, (E)-3-(4-Bromo-phenyl)-1-pyrazin-2-yl-3-o-tolyl-propan-1-one oxime]: the pEC50 is 5.21.

Compound `Cc1ccccc1C(C/C(=N\O)c1ccnc2cc(Cl)ccc12)c1ccc(Br)cc1` (stereo not shown) [Example 157, (E)-3-(4-Bromo-phenyl)-1-(7-chloro-quinolin-4-yl)-3-o-tolyl-propan-1-one oxime] gave a pEC50 of 5.44.

`Cn1cc(/C(CC(c2ccc(-c3ccc(C(=O)O)cc3)cc2)c2ccc(Cl)cc2F)=N/O)ccc1=O` (stereo not shown) [Example 238, 4′-[1-(4-Chloro-2-fluoro-phenyl)-3-[(E)-hydroxyimino]-3-(1-methyl-6-oxo-1,6-dihydro-pyridin-3-yl)-propyl]-biphenyl-4-carboxylic acid] showed a pEC50 of 7.64.

For `Cc1cnc(F)cc1C(CC(c1ccc(Br)cc1)c1ccccc1C)=NO` (racemic) [Example 124, 3-(4-Bromo-phenyl)-1-(2-fluoro-5-methyl-pyridin-4-yl)-3-o-tolyl-propan-1-one oxime], the negative-log EC50 (pEC50) was 7.77.

On to `CN1CCC(N(C)C(=O)c2ccc(C(C/C(=N\O)c3ccc(=O)n(C)c3)c3ccccc3Cl)cc2F)CC1` (stereo not shown) [Example 218, (E)-4-(1-(2-Chlorophenyl)-3-(hydroxyimino)-3-(1-methyl-6-oxo-1,6-dihydropyridin-3-yl)propyl)-2-fluoro-N-methyl-N-(1-methylpiperidin-4-yl)benzamide], for which the negative logarithm of the EC50 (pEC50) is 5.79.

The compound `Cc1cc(/C(C[C@H](c2ccc(S(C)(=O)=O)cc2)c2ccccc2C)=N/O)ccn1` [Example 358, (R)-3-(4-Methanesulfonyl-phenyl)-1-(2-methyl-pyridin-4-yl)-3-o-tolyl-propan-1-one oxime] gave a pEC50 of 7.85.

As for `CC(=O)Nc1cccc(C(C/C(=N\O)c2ccc(=O)n(C)c2)c2ccc(Cl)cc2F)c1` (stereo not shown) [Example 319, (E)-N-(3-(1-(4-Chloro-2-fluorophenyl)-3-(hydroxyimino)-3-(1-methyl-6-oxo-1,6-dihydropyridin-3-yl)propyl)phenyl)acetamide], the pEC50 was 5.60.

In turn, `CCNC(=O)c1ccc(C(C/C(=N\O)c2ccc(=O)n(C)c2)c2ccccc2Cl)cc1F` (stereo not shown) [Example 245, (E)-4-(1-(2-Chlorophenyl)-3-(hydroxyimino)-3-(1-methyl-6-oxo-1,6-dihydropyridin-3-yl)propyl)-N-ethyl-2-fluorobenzamide] had a pEC50 of 6.60. This pEC50 lies 1.00 log units higher than the previous one.

For `Cc1ccccc1C(C/C(=N\O)c1ccc(=O)n(C)c1)c1ccc(C(=O)NC[C@H](C)O)cc1` (stereo partly drawn) [Example 247, 4-((E)-3-(Hydroxyimino)-3-(1-methyl-6-oxo-1,6-dihydropyridin-3-yl)-1-o-tolylpropyl)-N-((S)-2-hydroxypropyl)benzamide], the pEC50 is 6.66.

In the case of `Cc1cc(/C(C[C@H](c2ccc(C3CCC(C(=O)O)CC3)cc2)c2ccc(Cl)cc2C)=N/O)ccn1` (stereo partly drawn) [Example 503, (R,E)-4-(4-(1-(4-Chloro-2-methylphenyl)-3-(hydroxyimino)-3-(2-methylpyridin-4-yl)propyl)phenyl)cyclohexanecarboxylic acid], the pEC50 is 7.60.
